Laboratory results from patent US20250195511A1, “INDAZOLE DERIVATIVES USEFUL AS INHIBITORS OF NOD-LIKE RECEPTOR PROTEIN 3” (Merck Sharp & Dohme LLC, priority 2023, published 2025).

system: NLRP3 inflammasome; assay: NLRP3 inflammasome activation: ASC-SPECK formation in gramicidin-stimulated THP-1 cells; type: cell-based; conditions: Homo sapiens, THP-1, inhibition of ASC SPECK formation; PMA-treated human monocytic THP-1 cells, compound 1 h before 12.5 μg/ml gramicidin, 3-hour treatment
Text: Activation of the canonical NLRP3 inflammasome requires two steps, priming and activation. A priming signal such as a pathogen activated molecular patterns (PAMPs) or danger-activated molecular patterns (DAMPs) are recognized by Toll-like receptors leads to nuclear factor kappa B (NF-KB)-mediated signaling. […] The second step is activation which induces oligomerization of NLRP3 and subsequent assembly of NLRP3, apoptosis-associated speck-like protein containing a CARD (ASC), and procaspase-1 into an inflammasome complex. This triggers the transformation of procaspase-1 to caspase-1, and the production and secretion of mature IL-1β and IL-18 (Kim et al., J. Inflamm. 2015, 12, 41; Ozaki et al., J. Inflamm. Res. 2015, 8, 15-27; Rabeony et al., Eur. J. Immunol. 2015, 45, 2847). During inflammasome complex assembly, the oligomerization of NLRP3 triggers the nucleation of ASC and an event commonly referred to as “ASC SPECK” formation, as it is identified in the cell as a discrete puncta within the cell after staining and visualization of ASC using common immunocytochemical methods.
The ability of compounds to inhibit NLRP3 inflammasome activation was determined in vitro by monitoring formation of the ASC-SPECK in human monocytic THP-1 cells after stimulation. THP-1 cells (ATCC catalog #TIB-202) were maintained in complete growth media containing Roswell Park Memorial Institute RPMI (ATCC catalog #30-2001), 10% heat inactivated fetal bovine serum, 1× penicillin/streptomycin and 0.05 mM 2-mercaptoethanol. At the start of the assay, undifferentiated THP-1 cells were plated at a density of 20,000 cells per well in a 384-well plate (Poly-D-lysine coated Cell Carrier Ultra microplate, Perkin Elmer catalog #6057500) in complete growth media supplemented with 10 ng/ml phorbol 12-myristate 13-acetate (PMA; Sigma catalog #P8139), and then incubated overnight. The next day, media was replaced with assay media (RPMI (Gibco catalog #11875-093), 0.01% bovine serum albumin (BSA)). Compounds were serially diluted in DMSO and then added to wells one hour prior to the addition of 12.5 μg/ml Gramicidin (Enzo Lifescience, catalog #ALX-350-233-M005). All incubations were carried out at 37° C. (5% CO2/95% air). Following a 3-hour treatment with gramicidin, cells are fixed with 4% paraformaldehyde and stored at 4° C. until immunofluorescence staining.
Immunofluorescence staining: Anti-ASC antibody (MBL catalog #D086-3) was desalted and labeled with Alexa 488 antibody labeling kit (Thermo catalog #A20181) prior to use as described below. After fixation, the following steps were carried out at rt. Cells were first permeabilized with 0.3% polyethylene glycol tert-octylphenyl ether (Triton X-100) in phosphate-buffered saline (PBS) for 15 minutes and then incubated in blocking buffer containing 5% goat serum, 0.3% polyethylene glycol sorbitan monolaurate (Tween-20) and 0.03% sodium azide in PBS for 1 hour. Cells were stained with a mixture of ASC-Alexa 488 antibody (diluted 1:200 in blocking buffer) and nuclear stain DRAQ5 (1:5000 in blocking buffer, Thermo catalog #62251) in blocking buffer for 1 hour. Following a wash with 0.3% polyethylene glycol sorbitan monolaurate (Tween-20) in PBS, plates were imaged with an Opera Phenix High Content Screening System. The number of DRAQ5 positive cells containing ASC SPECKS were quantified in each well.
Data analysis: EC50 values were calculated by standard curve-fitting analysis using an internally developed program in TIBCO Spotfire software.

| EC50 [nM] | SMILES |
| --- | --- |
| 198 | Cc1cc(C(F)(F)F)cc(O)c1-c1cnc2cn(C3(C)CCOC3)nc2n1 (single isomer, unassigned) [Example 78, (S or R)-3-methyl-2-(2-(3-methyltetrahydrofuran-3-yl)-2H-pyrazolo[3,4-b]pyrazin-6-yl)-5-(trifluoromethyl)phenol] |
| 189 | Cc1cc(C(F)(F)F)cc(O)c1-c1cnc2cn(C3CCP(C)(=O)CC3)nc2n1 (single isomer, unassigned) [Example 82, (1R,4R or 1S,4S)-4-(6-(2-hydroxy-6-methyl-4-(trifluoromethyl)phenyl)-2H-pyrazolo[3,4-b]pyrazin-2-yl)-1-methylphosphinane 1-oxide] |
| 564 | Cc1cc(C(F)(F)F)cc(O)c1-c1cnc2cn([C@H]3CCOC[C@@H]3C)nc2n1 (single isomer, unassigned) [Example 87, 3-methyl-2-(2-((3R,4S or 3S,4R)-3-methyltetrahydro-2H-pyran-4-yl)-2H-pyrazolo[3,4-b]pyrazin-6-yl)-5-(trifluoromethyl)phenol] |

same assay, conditions: inhibition of ASC SPECK formation; PMA-treated human monocytic THP-1 cells, compound 1 h before 12.5 μg/ml gramicidin, 3-hour treatment

| SMILES | EC50 [nM] |
| --- | --- |
| Cc1cc(C(F)(F)F)cc(O)c1-c1cnc2cn(C3CCc4nnc(C(F)(F)F)n4C3)nc2n1 (single isomer, unassigned) [Example 71, (S or R)-3-methyl-5-(trifluoromethyl)-2-(2-(3-(trifluoromethyl)-5,6,7,8-tetrahydro-[1,2,4]triazolo[4,3-a]pyridin-6-yl)-2H-pyrazolo[3,4-b]pyrazin-6-yl)phenol] | 198 |
| Cc1cc(C(F)(F)F)cc(O)c1-c1cnc2cn(C3(C)CC(F)C3)nc2n1 (single isomer, unassigned) [Example 75, 2-(2-((1S,3S or 1R,3R)-3-fluoro-1-methylcyclobutyl)-2H-pyrazolo[3,4-b]pyrazin-6-yl)-3-methyl-5-(trifluoromethyl)phenol] | 262 |
| Cc1cc(C(F)(F)F)cc(O)c1-c1cnc2cn(C34CC3COC4(C)C)nc2n1 (single isomer, unassigned) [Example 77, 2-(2-((1S,5S or 1R,5R)-2,2-dimethyl-3-oxabicyclo[3.1.0]hexan-1-yl)-2H-pyrazolo[3,4-b]pyrazin-6-yl)-3-methyl-5-(trifluoromethyl)phenol] | 445 |
| Cc1cc(C(F)(F)F)cc(O)c1-c1cnc2cn(C3(C)CCOC3)nc2n1 (single isomer, unassigned) [Example 79, (R or S)-3-methyl-2-(2-(3-methyltetrahydrofuran-3-yl)-2H-pyrazolo[3,4-b]pyrazin-6-yl)-5-(trifluoromethyl)phenol] | 173 |
| Cc1cc(C(F)(F)F)cc(O)c1-c1cnc2cn(CC3CC(=O)N(C(C)C)C3)nc2n1 (single isomer, unassigned) [Example 81, (S or R)-4-((6-(2-hydroxy-6-methyl-4-(trifluoromethyl)phenyl)-2H-pyrazolo[3,4-b]pyrazin-2-yl)methyl)-1-isopropylpyrrolidin-2-one] | 437 |
| Cc1cc(C(F)(F)F)cc(O)c1-c1cnc2cn([C@@H]3CCOC[C@@H]3C)nc2n1 (single isomer, unassigned) [Example 86, 3-methyl-2-(2-((3S,4S or 3R,4R)-3-methyltetrahydro-2H-pyran-4-yl)-2H-pyrazolo[3,4-b]pyrazin-6-yl)-5-(trifluoromethyl)phenol] | 326 |
| Cc1cc(C(F)(F)F)cc(O)c1-c1cnc2cn([C@H]3CCOC[C@@H]3C)nc2n1 (single isomer, unassigned) [Example 88, 3-methyl-2-(2-((3S,4R or 3R,4S)-3-methyltetrahydro-2H-pyran-4-yl)-2H-pyrazolo[3,4-b]pyrazin-6-yl)-5-(trifluoromethyl)phenol] | 291 |

The next lines start with the values.

| EC50 [nM] | SMILES |
| --- | --- |
| 40 | Cc1cc(C(F)(F)F)cc(O)c1-c1cnc2cn(C3CCc4nnn(C)c4C3)nc2n1 (single isomer, unassigned) [Example 68, (R or S)-3-methyl-2-(2-(1-methyl-4,5,6,7-tetrahydro-1H-benzo[d][1,2,3]triazol-6-yl)-2H-pyrazolo[3,4-b]pyrazin-6-yl)-5-(trifluoromethyl)phenol] |
| 15 | Cc1cc(C(F)(F)F)cc(O)c1-c1cnc2cn(C3CCc4nnn(C)c4C3)nc2n1 (single isomer, unassigned) [Example 69, (S or R)-3-methyl-2-(2-(1-methyl-4,5,6,7-tetrahydro-1H-benzo[d][1,2,3]triazol-6-yl)-2H-pyrazolo[3,4-b]pyrazin-6-yl)-5-(trifluoromethyl)phenol] |
| 12 | Cc1cc(C(F)(F)F)cc(O)c1-c1cnc2cn(C3CCc4nnc(C(F)(F)F)n4C3)nc2n1 (single isomer, unassigned) [Example 70, (R or S)-3-methyl-5-(trifluoromethyl)-2-(2-(3-(trifluoromethyl)-5,6,7,8-tetrahydro-[1,2,4]triazolo[4,3-a]pyridin-6-yl)-2H-pyrazolo[3,4-b]pyrazin-6-yl)phenol] |
| 20 | CCc1nnc2n1CC(n1cc3ncc(-c4c(C)cc(C(F)(F)F)cc4O)nc3n1)CC2 (single isomer, unassigned) [Example 72, (R or S)-2-(2-(3-ethyl-5,6,7,8-tetrahydro-[1,2,4]triazolo[4,3-a]pyridin-6-yl)-2H-pyrazolo[3,4-b]pyrazin-6-yl)-3-methyl-5-(trifluoromethyl)phenol] |
| 142 | CCc1nnc2n1CC(n1cc3ncc(-c4c(C)cc(C(F)(F)F)cc4O)nc3n1)CC2 (single isomer, unassigned) [Example 73, (S or R)-2-(2-(3-ethyl-5,6,7,8-tetrahydro-[1,2,4]triazolo[4,3-a]pyridin-6-yl)-2H-pyrazolo[3,4-b]pyrazin-6-yl)-3-methyl-5-(trifluoromethyl)phenol] |
| 66 | Cc1cc(C(F)(F)F)cc(O)c1-c1cnc2cn(C3(C)CC(F)C3)nc2n1 (single isomer, unassigned) [Example 74, 2-(2-((1R,3R or 1S,3S)-3-fluoro-1-methylcyclobutyl)-2H-pyrazolo[3,4-b]pyrazin-6-yl)-3-methyl-5-(trifluoromethyl)phenol] |
| 99 | Cc1cc(C(F)(F)F)cc(O)c1-c1cnc2cn(C34CC3COC4(C)C)nc2n1 (single isomer, unassigned) [Example 76, 2-(2-((1R,5R or 1S,5S)-2,2-dimethyl-3-oxabicyclo[3.1.0]hexan-1-yl)-2H-pyrazolo[3,4-b]pyrazin-6-yl)-3-methyl-5-(trifluoromethyl)phenol] |
| 8 | Cc1cc(C(F)(F)F)cc(O)c1-c1cnc2cn(CC3CC(=O)N(C(C)C)C3)nc2n1 (single isomer, unassigned) [Example 80, (R or S)-4-((6-(2-hydroxy-6-methyl-4-(trifluoromethyl)phenyl)-2H-pyrazolo[3,4-b]pyrazin-2-yl)methyl)-1-isopropylpyrrolidin-2-one] |
| 11 | Cc1cc(C(F)(F)F)cc(O)c1-c1cnc2cn(C34COCC3C4)nc2n1 (single isomer, unassigned) [Example 83, 2-(2-((1R,5R or 1S,5S)-3-oxabicyclo[3.1.0]hexan-1-yl)-2H-pyrazolo[3,4-b]pyrazin-6-yl)-3-methyl-5-(trifluoromethyl)phenol] |
| 60 | Cc1cc(C(F)(F)F)cc(O)c1-c1cnc2cn(C34COCC3C4)nc2n1 (single isomer, unassigned) [Example 84, 2-(2-((1S,5S or 1R,5R)-3-oxabicyclo[3.1.0]hexan-1-yl)-2H-pyrazolo[3,4-b]pyrazin-6-yl)-3-methyl-5-(trifluoromethyl)phenol] |
| 42 | Cc1cc(C(F)(F)F)cc(O)c1-c1cnc2cn([C@@H]3CCOC[C@@H]3C)nc2n1 (single isomer, unassigned) [Example 85, 3-methyl-2-(2-((3R,4R or 3S,4S)-3-methyltetrahydro-2H-pyran-4-yl)-2H-pyrazolo[3,4-b]pyrazin-6-yl)-5-(trifluoromethyl)phenol] |
